Tests used:
NOD mouse = settings: administered at low doses; cited from earlier work
CD4 T cells = experiment: CFSE proliferation assay of CD4 T cells from PBMCs of established T1D subjects; assay type: cell-based, human

## SHLVEALYLVCGEEG [B: 9-23 B22E, B:9-23 mimotope; B22 arginine to glutamic acid]
NOD mouse
  inducing tolerance and preventing diabetes onset: completely preventing diabetes onset
CD4 T cells
  proliferation of CD4 T cells (CFSE dilution): proliferation of CD4 T cells much more than the wild type peptide

— patent US10363288B2, “Insulin mimotopes and methods of using the same” (THE REGENTS OF THE UNIVERSITY OF COLORADO, a body corporate, priority 2015, dated 2019)
